What was measured:
[1] = molecular target: T1, intracellular phosphorylation of EGFR in NCI-H1975 cell line that harbors the EGFR L858R T790M mutations (Homo sapiens, UniProt P00533, L858R/T790M); assay: NCI-H1975 pEGFR AlphaLISA assay; type: cell-based; conditions: NCI-H1975 cells (EGFR L858R T790M), p-EGFR (Tyr1068), 4-5 hours incubation; read-out: Ext pEGFR H1975 GMean IC50 (nM) Protocol: @Pharmaron AlphaLISA (Num)
T1 construct: NCI-H1975 cell line that harbors the EGFR L858R T790M mutations (ATCC, CRL-5908); host or cells: NCI-H1975
T1 sequence (P00533 25-1210 T790M/L858R): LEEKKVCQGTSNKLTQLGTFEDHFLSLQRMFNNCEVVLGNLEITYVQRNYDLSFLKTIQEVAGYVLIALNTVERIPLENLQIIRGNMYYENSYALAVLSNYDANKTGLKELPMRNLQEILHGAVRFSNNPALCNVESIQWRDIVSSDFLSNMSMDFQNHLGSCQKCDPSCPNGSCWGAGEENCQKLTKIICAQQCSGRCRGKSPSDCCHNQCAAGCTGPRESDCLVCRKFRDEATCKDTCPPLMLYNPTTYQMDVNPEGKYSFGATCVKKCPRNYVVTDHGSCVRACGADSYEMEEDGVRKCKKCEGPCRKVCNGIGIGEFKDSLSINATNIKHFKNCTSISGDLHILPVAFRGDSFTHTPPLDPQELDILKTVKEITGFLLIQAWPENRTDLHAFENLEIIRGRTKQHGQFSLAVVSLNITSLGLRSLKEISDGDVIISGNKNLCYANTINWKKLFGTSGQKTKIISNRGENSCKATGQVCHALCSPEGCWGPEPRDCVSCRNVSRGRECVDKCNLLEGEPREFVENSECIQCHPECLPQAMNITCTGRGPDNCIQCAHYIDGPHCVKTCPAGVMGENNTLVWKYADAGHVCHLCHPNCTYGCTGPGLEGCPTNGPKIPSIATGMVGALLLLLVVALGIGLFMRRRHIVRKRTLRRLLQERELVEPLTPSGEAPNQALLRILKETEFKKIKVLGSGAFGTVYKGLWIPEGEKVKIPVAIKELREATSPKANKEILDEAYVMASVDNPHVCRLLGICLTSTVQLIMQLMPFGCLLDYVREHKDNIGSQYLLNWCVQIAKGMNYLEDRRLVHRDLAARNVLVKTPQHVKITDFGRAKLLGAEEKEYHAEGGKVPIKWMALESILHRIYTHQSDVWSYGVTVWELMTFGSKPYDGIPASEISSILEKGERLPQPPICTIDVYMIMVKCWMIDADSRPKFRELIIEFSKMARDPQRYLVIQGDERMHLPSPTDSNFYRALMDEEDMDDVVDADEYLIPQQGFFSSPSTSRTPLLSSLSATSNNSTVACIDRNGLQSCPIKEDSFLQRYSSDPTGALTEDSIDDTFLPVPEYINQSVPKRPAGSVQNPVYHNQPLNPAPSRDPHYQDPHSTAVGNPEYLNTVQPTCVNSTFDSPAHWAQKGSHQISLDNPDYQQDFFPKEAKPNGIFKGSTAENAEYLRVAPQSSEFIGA
Description: On the next day, the test compounds and DMSO control were added into H1975 cell plate followed by incubation at 37C/5% CO2 for 4-5 hours. […] Then 5 μL of a donor bead mix was added to each well followed by overnight incubation at room temperature in dark. On the next day, the plate was read at a compatible plate reader to obtain pEGFR signal. Percent of pEGFR inhibition was plotted against log concentration of compounds to generate IC50 values.

EGFR (L858R T790M C797S) = molecular target: T2, EGFR (L858R T790M C797S) (Homo sapiens, UniProt P00533, C797S/L858R/T790M); assay: Biochemical EGFR inhibition assay (Caliper mobility shift), EGFR LRTMCS; conditions: LRTMCS (PH) IC50 (nM) @ 1 mM ATP (Num), EGFR LRTMCS mutant
T2 construct: purchased SignalChem E10-122VG
T2 sequence (P00533 25-1210 T790M/C797S/L858R): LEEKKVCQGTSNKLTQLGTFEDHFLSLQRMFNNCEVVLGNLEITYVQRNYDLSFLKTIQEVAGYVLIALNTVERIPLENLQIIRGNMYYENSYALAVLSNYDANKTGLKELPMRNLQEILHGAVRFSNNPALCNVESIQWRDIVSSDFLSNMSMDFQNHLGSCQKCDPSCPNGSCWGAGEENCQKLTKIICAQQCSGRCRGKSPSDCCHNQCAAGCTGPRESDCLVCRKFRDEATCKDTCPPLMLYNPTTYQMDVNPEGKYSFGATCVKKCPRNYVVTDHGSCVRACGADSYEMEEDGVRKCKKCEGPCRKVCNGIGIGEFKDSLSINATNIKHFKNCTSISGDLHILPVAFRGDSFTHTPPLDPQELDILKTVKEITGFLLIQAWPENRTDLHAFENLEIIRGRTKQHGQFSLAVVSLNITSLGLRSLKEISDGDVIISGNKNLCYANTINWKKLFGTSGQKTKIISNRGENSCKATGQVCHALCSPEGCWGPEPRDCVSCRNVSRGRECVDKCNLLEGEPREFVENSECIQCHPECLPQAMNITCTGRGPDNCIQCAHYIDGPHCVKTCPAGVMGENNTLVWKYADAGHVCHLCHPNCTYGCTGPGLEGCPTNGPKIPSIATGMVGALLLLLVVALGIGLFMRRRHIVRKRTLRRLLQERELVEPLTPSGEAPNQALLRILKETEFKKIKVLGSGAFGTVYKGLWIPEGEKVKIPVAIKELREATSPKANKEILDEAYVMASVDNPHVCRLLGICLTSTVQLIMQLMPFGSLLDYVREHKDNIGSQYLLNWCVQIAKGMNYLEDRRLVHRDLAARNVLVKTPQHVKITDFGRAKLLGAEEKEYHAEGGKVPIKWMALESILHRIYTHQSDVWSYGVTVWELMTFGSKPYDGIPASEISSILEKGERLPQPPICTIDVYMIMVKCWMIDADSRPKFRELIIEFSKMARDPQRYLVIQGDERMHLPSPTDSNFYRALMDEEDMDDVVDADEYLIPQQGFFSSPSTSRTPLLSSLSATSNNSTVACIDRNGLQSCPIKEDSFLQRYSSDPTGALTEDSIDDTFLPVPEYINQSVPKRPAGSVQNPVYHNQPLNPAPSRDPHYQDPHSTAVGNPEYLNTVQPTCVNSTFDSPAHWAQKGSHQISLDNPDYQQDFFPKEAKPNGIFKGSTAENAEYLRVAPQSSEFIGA
How it was run: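 Each enzyme was allowed to phosphorylate 10–20% of its peptide at 25° C. before EDTA (35 mM) quench. Separated substrate and product peaks were measured by mobility shift, giving apparent IC50 values.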

SMILES | IC50 [1] | IC50 (EGFR (L858R T790M C797S))
CC(C)c1cnc(N2CC[C@@H](S(C)(=O)=O)C2)c2cnc(Nc3ccnc(N4CC[C@@H](O)[C@@](C)(F)C4)n3)cc12 [Example 74, (3S,4R)-3-fluoro-1-(4-((5-isopropyl-8-((R)-3-(methylsulfonyl)pyrrolidin-1-yl)-2,7-naphthyridin-3-yl)amino)pyrimidin-2-yl)-3-methylpiperidin-4-ol] | < 10 nM | < 15 nM
CO[C@H]1CCN(c2nccc(Nc3cc4c(C(C)C)cnc(N5CCC56CN(C)C6)c4cn3)n2)C[C@@]1(C)F (single isomer, unassigned) [Example 43, N-(2-((3R,4S)-3-fluoro-4-methoxy-3-methylpiperidin-1-yl)pyrimidin-4-yl)-5-isopropyl-8-(6-methyl-1,6-diazaspiro[3.3]heptan-1-yl)-2,7-naphthyridin-3-amine or N-(2-((3S,4R)-3-fluoro-4-methoxy-3-methylpiperidin-1-yl)pyrimidin-4-yl)-5-isopropyl-8-(6-methyl-1,6-diazaspiro[3.3]heptan-1-yl)-2,7-naphthyridin-3-amine] | > 50 nM | 15 to 20 nM
CC(C)c1cnc(-c2cn(C)nn2)c2cnc(Nc3ccnc(N4CC[C@@H](O)[C@@](C)(F)C4)n3)cc12 [Example 10, (3S,4R)-3-fluoro-1-(4-((5-isopropyl-8-(1-methyl-1H-1,2,3-triazol-4-yl)-2,7-naphthyridin-3-yl)amino)pyrimidin-2-yl)-3-methylpiperidin-4-ol] | 10 to 20 nM | < 15 nM
COC1CN(c2ncc(C(C)C)c3cc(Nc4ccnc(N5CC[C@@H](O)[C@@](C)(F)C5)n4)ncc23)C1 [Example 51, (3S,4R)-3-fluoro-1-(4-((5-isopropyl-8-(3-methoxyazetidin-1-yl)-2,7-naphthyridin-3-yl)amino)pyrimidin-2-yl)-3-methylpiperidin-4-ol] | 20 to 30 nM | < 15 nM
CC(C)c1cnc(N2CC[C@H]2C)c2cnc(Nc3ccnc(N4CC[C@@H](OCCN(C)C)[C@@H](F)C4)n3)cc12 [Example 203, N-(2-((3S,4R)-4-(2-(dimethylamino)ethoxy)-3-fluoropiperidin-1-yl)pyrimidin-4-yl)-5-isopropyl-8-((R)-2-methylazetidin-1-yl)-2,7-naphthyridin-3-amine] | 30 to 50 nM | < 15 nM
CC(C)c1cnc(N2CC[C@H]2CF)c2cnc(Nc3ccnc(N4CC[C@@H](O)[C@@](C)(F)C4)n3)cc12 [Example 76, (3S,4R)-3-fluoro-1-(4-((8-((S)-2-(fluoromethyl)azetidin-1-yl)-5-isopropyl-2,7-naphthyridin-3-yl)amino)pyrimidin-2-yl)-3-methylpiperidin-4-ol] | 10 to 20 nM | < 15 nM
CC(C)c1cnc(N2CCC23CN(C(C)C)C3)c2cnc(Nc3ccnc(N4CC[C@@H](O)[C@@](C)(F)C4)n3)cc12 [Example 193, (3S,4R)-3-fluoro-1-(4-((5-isopropyl-8-(6-isopropyl-1,6-diazaspiro[3.3]heptan-1-yl)-2,7-naphthyridin-3-yl)amino)pyrimidin-2-yl)-3-methylpiperidin-4-ol] | 20 to 30 nM | < 15 nM
CC(C)c1cnc(N2C[C@H](O)[C@H]2C)c2cnc(Nc3ccnc(N4CCC(C)(O)CC4)n3)cc12 [Example 128, 1-(4-((8-((2R,3S)-3-hydroxy-2-methylazetidin-1-yl)-5-isopropyl-2,7-naphthyridin-3-yl)amino)pyrimidin-2-yl)-4-methylpiperidin-4-ol] | > 50 nM | < 15 nM
COC1CN(c2ccc([C@@H](C)CO)c3cc(Nc4ccnc(N5CC[C@@H](O)[C@@](C)(F)C5)n4)ncc23)C1 (single isomer, unassigned) [Example 180, (3S,4R)-3-fluoro-1-(4-((5-((R)-1-hydroxypropan-2-yl)-8-(3-methoxyazetidin-1-yl)isoquinolin-3-yl)amino)pyrimidin-2-yl)-3-methylpiperidin-4-ol or (3S,4R)-3-fluoro-1-(4-((5-((S)-1-hydroxypropan-2-yl)-8-(3-methoxyazetidin-1-yl)isoquinolin-3-yl)amino)pyrimidin-2-yl)-3-methylpiperidin-4-ol] | > 50 nM | 30 to 100 nM
CC(C)c1cnc(N2C[C@H](n3ccnn3)[C@H]2C)c2cnc(Nc3ccnc(N4CC[C@@](C)(O)[C@@H](F)C4)n3)cc12 [Example 144, (3S,4R)-3-fluoro-1-(4-((5-isopropyl-8-((2R,3S)-2-methyl-3-(1H-1,2,3-triazol-1-yl)azetidin-1-yl)-2,7-naphthyridin-3-yl)amino)pyrimidin-2-yl)-4-methylpiperidin-4-ol] | 30 to 50 nM | 15 to 20 nM

Now from value to molecule:

IC50 [1] | IC50 (EGFR (L858R T790M C797S)) | SMILES
10 to 20 nM | < 15 nM | CC(C)c1cnc(N2CC(C#N)C2)c2cnc(Nc3ccnc(N4CC[C@@H](O)[C@@](C)(F)C4)n3)cc12 [Example 58, 1-(6-((2-((3S,4R)-3-fluoro-4-hydroxy-3-methylpiperidin-1-yl)pyrimidin-4-yl)amino)-4-isopropyl-2,7-naphthyridin-1-yl)azetidine-3-carbonitrile]
20 to 30 nM | < 15 nM | CC(C)c1ncc(N2CC[C@H]2C)c2cnc(Nc3ccnc(N4CC[C@@H](O)[C@@](C)(F)C4)n3)cc12 [Example 106, (3S,4R)-3-fluoro-1-(4-((5-isopropyl-8-((R)-2-methylazetidin-1-yl)-2,6-naphthyridin-3-yl)amino)pyrimidin-2-yl)-3-methylpiperidin-4-ol]
30 to 50 nM | < 15 nM | CNC(=O)C1CN(c2ncc(C(C)C)c3cc(Nc4ccnc(N5CC[C@@H](O)[C@@](C)(F)C5)n4)ncc23)C1 [Example 80, 1-(6-((2-((3S,4R)-3-fluoro-4-hydroxy-3-methylpiperidin-1-yl)pyrimidin-4-yl)amino)-4-isopropyl-2,7-naphthyridin-1-yl)-N-methylazetidine-3-carboxamide]
30 to 50 nM | < 15 nM | CO[C@@H]1CCN(c2nccc(Nc3cc4c(C(C)C)cnc(N5CCC56CN(C)C6)c4cn3)n2)C[C@@H]1F [Example 41, N-(2-((3S,4R)-3-fluoro-4-methoxypiperidin-1-yl)pyrimidin-4-yl)-5-isopropyl-8-(6-methyl-1,6-diazaspiro[3.3]heptan-1-yl)-2,7-naphthyridin-3-amine]
> 50 nM | 15 to 20 nM | C[C@@H]1[C@H](F)CN1c1ncc([C@@H](C)CO)c2cc(Nc3ccnc(N4CC[C@@H](O)[C@@](C)(F)C4)n3)ncc12 (single isomer, unassigned) [Example 209, (3S,4R)-3-fluoro-1-(4-((8-((2R,3R)-3-fluoro-2-methylazetidin-1-yl)-5-((R)-1-hydroxypropan-2-yl)-2,7-naphthyridin-3-yl)amino)pyrimidin-2-yl)-3-methylpiperidin-4-ol or (3S,4R)-3-fluoro-1-(4-((8-((2R,3R)-3-fluoro-2-methylazetidin-1-yl)-5-((S)-1-hydroxypropan-2-yl)-2,7-naphthyridin-3-yl)amino)pyrimidin-2-yl)-3-methylpiperidin-4-ol]
< 10 nM | < 15 nM | CO[C@H]1CN(c2ncc(C(C)C)c3cc(Nc4ccnc(N5CC[C@@H](O)[C@@](C)(F)C5)n4)ncc23)[C@@H]1C [Example 107, (3S,4R)-3-fluoro-1-(4-((5-isopropyl-8-((2R,3S)-3-methoxy-2-methylazetidin-1-yl)-2,7-naphthyridin-3-yl)amino)pyrimidin-2-yl)-3-methylpiperidin-4-ol]
10 to 20 nM | < 15 nM | CC(C)c1cnc(N2C[C@H](O)[C@H]2C)c2cnc(Nc3ccnc(N4CC[C@H](O)[C@H](F)C4)n3)cc12 [Example 143, (3R,4S)-3-fluoro-1-(4-((8-((2R,3S)-3-hydroxy-2-methylazetidin-1-yl)-5-isopropyl-2,7-naphthyridin-3-yl)amino)pyrimidin-2-yl)piperidin-4-ol]
10 to 20 nM | < 15 nM | CO[C@H]1CCN(c2nccc(Nc3cc4c(C(C)C)cnc(N5C[C@H](O)[C@H]5C)c4cn3)n2)C[C@H]1F [Example 149, (2R,3S)-1-(6-((2-((3R,4S)-3-fluoro-4-methoxypiperidin-1-yl)pyrimidin-4-yl)amino)-4-isopropyl-2,7-naphthyridin-1-yl)-2-methylazetidin-3-ol]
20 to 30 nM | 15 to 20 nM | CC(C)c1cnc(N2CC3(CCO3)C2)c2cnc(Nc3ccnc(N4CC[C@@H](O)[C@@](C)(F)C4)n3)cc12 [Example 54, (3S,4R)-3-fluoro-1-(4-((5-isopropyl-8-(1-oxa-6-azaspiro[3.3]heptan-6-yl)-2,7-naphthyridin-3-yl)amino)pyrimidin-2-yl)-3-methylpiperidin-4-ol]
20 to 30 nM | < 15 nM | CC(C)c1cnc(N2CC(CNS(C)(=O)=O)C2)c2cnc(Nc3ccnc(N4CC[C@@H](O)[C@@](C)(F)C4)n3)cc12 [Example 83, N-((1-(6-((2-((3S,4R)-3-fluoro-4-hydroxy-3-methylpiperidin-1-yl)pyrimidin-4-yl)amino)-4-isopropyl-2,7-naphthyridin-1-yl)azetidin-3-yl)methyl)methanesulfonamide]

Source: US20240382483A1, “HETEROCYCLIC EGFR INHIBITORS FOR USE IN THE TREATMENT OF CANCER” (Blueprint Medicines Corporation, priority 2021, published 2024)
